Measured values as given in publication PMC8578629, “Photoactivated cell-killing amino-based flavylium compounds” (Scientific Reports, 2021).
Where two headings read alike, the source gives them in different places.

How the values were obtained:
[1] = MTT cytotoxicity assay, keratinocytes; format: cell-based; details: human, HaCaT cells (keratinocytes), dark
Protocol: The cytotoxicity of amino-based flavylium compounds to HFF-1 (ATCC Number: SCRC-1041) and HaCaT cells was evaluated using the standard MTT assay. Briefly, cells were seeded at a density of 8 × 10^5 and 4 × 10^4 cells/mL, respectively, in 96-well plate and incubated at 37 °C in a 5% CO2 atmosphere. Cells were allowed to grow for 24 h or until reaching monolayer confluency, and serially diluted compound solutions (6.3–100 µM) were added to the plate wells. The stock solutions of each compound were prepared at 200 mM in DMSO, the maximum % of DMSO in the cells was 0.05%. Then, cells were incubated for 48 h at 37 °C, after which the plate wells were washed once with phosphate buffered saline (PBS, Sigma-Aldrich), followed by addition of a 0.45 mg/mL MTT solution to each well. Crystals were allowed to form for 1.5 h. The reaction was stopped by rejecting the medium followed by the addition of 100 µL of DMSO (Sigma-Aldrich). The absorbance was read at 570 nm in FlexStation 3 Multi-Mode Microplate Reader (Molecular Devices, California, USA).

[2] = test system: HaCaT cells; experiment: Cellular photoactivation assay (white light or dark, Alamar Blue); format: cell-based, human; details: for Dark cytotoxicity to HaCaT cells (in words) / Photoactivation, dark versus white light (in words) / IC50: 4 h incubation; for Dark cytotoxicity to HaCaT cells (in words) / Photoactivation, dark versus white light (in words): 6.25–100 μM applied; for Photoactivation, dark versus white light (in words): white light 6.6 J cm^−2; for IC50: Homo sapiens, HaCaT, concentrations corrected for uptake
Protocol: A white light LED homemade device prototype has 96 LEDs appropriately arranged on a plate of 13 cm length × 8 cm width, with a distance from the microplate surface of 8 cm. The prototype has an irradiance of 21 W m^−2 and a wavelength range of 408–707 nm (Fig. S4).
For the cellular photoactivation assays, the white light source of 21 W m^−2 was used. Briefly, cells were seed at a density of 4 × 10^4 cells/mL onto 96 –well plates and after 24 h the compounds were added to the plates in different concentrations (6.25–100 μM) and incubated for a period of 4 h at 37 °C in an atmosphere of 5% CO2 and in the presence of DMEM with 2% FBS. After this period, the medium with the compounds was removed and fresh medium (DMEM with 2% FBS without phenol red (DMEM_2% FBS_w/o_PR) was added to cells. Following this procedure, cells were submitted to light irradiation, the selected light source at a height of 8 cm, in a chamber designed to ensure the same light quantity for each well during the treatment. Cells were irradiated for 10 min at an intensity of 50%, at room temperature (making a total energy exposition of 6.6 J cm^−2). The dark treatment was prepared by placing the plates for 10 min in a dark box at room temperature. After this, the 96 well plates were placed in an incubator at 37 °C in an atmosphere of 5% CO2 for 24 h. Then, to determine cell survival the Alamar Blue assay was performed as follows: after the 24 h, 20 μL of a solution of Resazurin (0.15 mg mL^−1 in PBS filtered in 0.22 μm filters) were added to each well (making a total volume of 120 μL per well), and the plates were incubated between 4–6 h (until the development of visible color change from violet to pink). The fluorescence intensity of each well was then determined at 560/590 nm (ex/em) (FlexStation 3 Multi-Mode Microplate Reader).

[3] = test system: HaCaT cells; experiment: Photodynamic therapy mechanism determination with type I/type II quenchers; format: cell-based, human; details: compound 50 μΜ, light 6.6 J cm^−2
Protocol: For the determination of the photoactivation mechanism that yielded to cell death, cells were seeded as previously described for the photoactivation assays. […] The incubation proceeded for a time period of 4 h. After this, solutions containing the compounds were removed from cells and fresh medium containing the different quenchers were added to cells. Cells were irradiated for 10 min at an intensity of 50%, at room temperature (making a total energy exposition of 6.6 J cm^−2). The dark treatment was done by placing the plates for 10 min in a dark box at room temperature. After this, the medium was removed and replaced by fresh medium without any additive. The 96 well plates were then placed in an incubator at 37 °C in an atmosphere of 5% CO2 for 24 h. Finally, the Alamar Blue assay was performed to determine cell survival as previously described.

[4] = Maximum absorption wavelength of the flavylium cation; format: physicochemical; details: species adsorbed/absorbed in cells
[5] = Fluorescence quantum yield by the absolute method (integrating sphere); format: physicochemical; details: in DMSO
Protocol: Based on the absorbance maxima of the different compounds (Fig. S2), the measurement of the quantum yield (QY) of the synthesized flavylium derivatives was performed using a calibrated Quantaurus-QY stand-alone integrating sphere setup C11347-11 (Hamamatsu Photonics, Hamamatsu, Japan) equipped with an integration sphere, a monochromator, a spectrograph, a 150 W xenon light source and a silicon charge coupled device. Each compound was dissolved in DMSO and diluted to ensure an absorbance of 0.1 from the λmax of excitation forward. Each compound was then irradiated at the corresponding wavelength and the absolute quantum yield determined. The fluorescence spectra was also recorded (Fig. S3). For each compound, four independent experiments were performed.

[6] = parameters: method as in doi:10.1016/j.cplett.2017.02.055; details: cited from earlier work
[7] = 4 h, kept in the dark, read-out: IC50 of HaCaT cell survival, DARK
[8] = white light 6.6 J cm^−2 (10 min), read-out: IC50 of HaCaT cell survival, LIGHT

Row | SMILES | IC50 at 48 h ([1]; monolayer confluence) [µM] | IC50 at 48 h ([1]; proliferation) [µM] | Dark cytotoxicity to HaCaT cells (in words) [2] | Photoactivation, dark versus white light (in words) [2] | IC50 [2, 7] [µM] | IC50 [2, 8] [µM] | Increase of cell survival with quencher ([3]; D-mannitol 10 mM (type I)) [%] | Increase of cell survival with quencher ([3]; L-cysteine 10 mM (type I)) [%] | Increase of cell survival with quencher ([3]; L-histidine 10 mM (type II)) [%] | Increase of cell survival with quencher ([3]; sodium azide 10 mM (type II)) [%] | Maximum absorption wavelength of the flavylium cation [4] [nm] | Quantum yield of fluorescence (Φf), mean ± SD [5] [%] | Cell survival, minimum ([2]; white light irradiation, highest concentration applied) [%] | Fluorescence quantum yield [6] [%]
1 | CCN(CC)c1ccc2ccc(-c3ccc(N)cc3)[o+]c2c1 [7NEt24′NH2, 4′-amino-7-diethylamino-benzopyrylium] | 29.8 ± 0.8 | 8.9 ± 0.2 | significant decrease of cell survival | potential photo-activation | 3 ± 0.734 | 1.53 ± 0.081 | 14 | 27 | 33 | 31 | 575 |  |  | 
2 | CCN(CC)c1ccc2ccc(-c3ccc(N(C)C)cc3)[o+]c2c1 [7NEt24′NMe2, 7-diethylamino-4′-dimethylamino-benzopyrylium] |  |  | absence of dark cytotoxicity | photoactivation even for low concentrations |  | 0.905 ± 0.231 | 6 | 13 | 44 | 27 | 596 | 5.83 ± 0.28 | 38 | 
3 | C=CC1=C(C)c2cc3[nH]c(cc4nc(cc5[nH]c(cc1n2)c(C)c5CCC(=O)O)C(CCC(=O)O)=C4C)c(C)c3C=C [PpIX, protoporphyrin IX, reference compound] |  |  | no cytotoxic effects in dark conditions | effective photoactivation from the three higher concentrations |  | 0.3 | 27 | 26 | 42 | 37 |  |  |  | 8.5
4 | CCN(CC)c1ccc2ccc(/C=C/c3ccc(N(C)C)cc3)[o+]c2c1 [7NEt2st4′NMe2, 7-(diethylamino)-2-(4′-dimethylaminostyryl)-benzopyrylium] | 91 ± 0.8 | 35.42 ± 0.02 | significant dark cytotoxicity | significant photoactivation was found for the last four concentrations | 5.11 ± 0.196 | 1.08 ± 0.13 | 22 | 16 | 46 | 31 | 672 | 3.40 ± 0.17 |  | 
